Source: US9663513B2, “Pyrimidine PDE10 inhibitors” (Merck Sharp & Dohme Corp., priority 2012, dated 2017)

Molecular target: human PDE10A2 (Homo sapiens (Human), UniProt Q9Y233)
Assay: PDE10 fluorescence polarization (IMAP FP) inhibition assay
Assay type: biochemical
Details: human PDE10A2 from transfected AD293 cells; FAM-labeled cAMP 50 nM; apparent inhibition constant; read-out: PDE10A Ki
Procedure: The activity of the compounds in accordance with the present invention as PDE10 inhibitors may be readily determined without undue experimentation using a fluorescence polarization (FP) methodology that is well known in the art (Huang, W., et al., J. Biomol Screen, 2002, 7: 215).
In a typical experiment the PDE10 inhibitory activity of the compounds of the present invention was determined in accordance with the following experimental method. PDE10A2 was amplified from human fetal brain cDNA (Clontech, Mountain View, Calif.) using a forward primer corresponding to nucleotides 56-77 of human PDE10A2 (Accession No. AF127480, Genbank Identifier 4894716), containing a Kozak consensus sequence, and a reverse primer corresponding to nucleotides 2406-2413 of human PDE10A2 (Accession No. AF127480, Genbank Identifier 4894716). Amplification with Easy-A polymerase (Stratagene, La Jolla, Calif.) was 95° C. for 2 minutes followed by thirty three cycles of 95° C. for 40 seconds, 55° C. for 30 seconds, and 72° C. for 2 minutes 48 seconds. Final extension was 72° C. for 7 minutes. The PCR product was TA cloned into pcDNA3.2-TOPO (Invitrogen, Carlsbad, Calif.) according to standard protocol. AD293 cells with 70-80% confluency were transiently transfected with human PDE10A2/pcDNA3.2-TOPO using Lipofectamine 2000 according to manufacturer specifications (Invitrogen, Carlsbad, Calif.). Cells were harvested 48 hours post-transfection and lysed by sonication (setting 3, 10×5 sec pulses) in a buffer containing 20 mM HEPES, 1 mM EDTA and protease inhibitor cocktail (Roche). Lysate was collected by centrifugation at 75,000×g for 20 minutes. Supernatant containing the cytoplasmic fraction was used for evaluation of PDE10A2 activity. The fluorescence polarization assay for cyclic nucleotide phosphodiesterases was performed using an IMAP® FP kit supplied by Molecular Devices, Sunnyvale, Calif. (product # R8139). IMAP® technology has been applied previously to phosphodiesterase assays (Huang, W., et al., J. Biomol Screen, 2002, 7: 215). Assays were performed at room temperature in 384-well microtiter plates with an incubation volume of 20.2 μL. Solutions of test compounds were prepared in DMSO and serially diluted with DMSO to yield 8 μL of each of 10 solutions differing by 3-fold in concentration, at 32 serial dilutions per plate. […] 0% of inhibition is determined by using DMSO (1% final concentrations).
A Labcyte Echo 555 (Labcyte, Sunnyvale, Calif.) is used to dispense 200 nL from each well of the titration plate to the 384 well assay plate. A solution of enzyme (1/1600 dilution from aliquots; sufficient to produce 20% substrate conversion) and a separate solution of FAM-labeled cAMP PDE from Molecular Devices (product # R7506), at a final concentration of 50 nM are made in the assay buffer (10 mM Tris HCl, pH 7.2, 10 mM MgCl2, 0.05% NaN3 0.01% Tween-20, and 1 mM DTT). The enzyme and the substrate are then added to the assay plates in two consecutive additions of 10 μL, and then shaken to mix. The reaction is allowed to proceed at room temperature for 30 minutes. […] The enzymatic reaction is stopped by addition of 60 μL of the binding solution to each well of the assay plates and the plates are sealed and shaken for 10 seconds. The plate was incubated at room temperature for at least one hour prior to determining the fluorescence polarization (FP). The parallel and perpendicular fluorescence of each well of the plate was measured using a Perkin Elmer EnVision™ plate reader (Waltham, Mass.).
Fluorescence polarization (mP) was calculated from the parallel (S) and perpendicular (P) fluorescence of each sample well and the analogous values for the median control well, containing only substrate (So and Po), using the following equation: Polarization(mP)=1000*(S/So−P/Po)/(S/So+P/Po).
Dose-inhibition profiles for each compound were characterized by fitting the mP data to a four-parameter equation given below.

Chain of human PDE10A2 (Q9Y233 267-1055): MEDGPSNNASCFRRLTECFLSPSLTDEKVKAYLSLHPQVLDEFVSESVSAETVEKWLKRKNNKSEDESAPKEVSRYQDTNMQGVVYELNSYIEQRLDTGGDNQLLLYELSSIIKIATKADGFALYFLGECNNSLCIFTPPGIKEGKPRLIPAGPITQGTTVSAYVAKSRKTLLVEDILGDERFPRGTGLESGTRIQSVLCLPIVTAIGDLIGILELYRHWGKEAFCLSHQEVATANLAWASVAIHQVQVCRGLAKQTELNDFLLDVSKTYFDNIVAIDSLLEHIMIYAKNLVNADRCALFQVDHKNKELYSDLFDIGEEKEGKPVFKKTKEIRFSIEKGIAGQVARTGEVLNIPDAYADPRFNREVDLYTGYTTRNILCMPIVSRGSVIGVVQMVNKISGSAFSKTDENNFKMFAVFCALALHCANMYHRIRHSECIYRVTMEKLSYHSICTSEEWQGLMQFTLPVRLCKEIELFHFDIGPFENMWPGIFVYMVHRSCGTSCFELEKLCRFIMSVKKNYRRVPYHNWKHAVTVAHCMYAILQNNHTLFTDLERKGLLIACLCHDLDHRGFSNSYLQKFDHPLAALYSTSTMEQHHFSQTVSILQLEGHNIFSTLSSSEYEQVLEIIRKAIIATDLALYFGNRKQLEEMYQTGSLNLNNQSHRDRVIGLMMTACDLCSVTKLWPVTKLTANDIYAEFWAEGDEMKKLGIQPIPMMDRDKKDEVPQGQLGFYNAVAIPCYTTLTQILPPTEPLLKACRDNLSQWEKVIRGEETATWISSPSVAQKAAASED

SMILES	Ki
COc1ccc([C@H]2C[C@@H]2COc2nc(C)ncc2-c2ccc(OC(CO)CO)nc2)nc1 [Example 71, 2-(5-(4-(((1S,2S)-2-(5-methoxypyridin-2-yl)cyclopropyl)methoxy)-2-methylpyrimidin-5-yl)pyridin-2-yloxy)propane-1,3-diol]	4.78 nM
Cc1ncc(-c2cnc3[nH]ncc3c2)c(OC[C@H]2C[C@@H]2c2ccc3ccccc3n2)n1 (single isomer, unassigned) [Example 152]	1.78 nM
COc1ccc([C@H]2C[C@@H]2COc2nc(C)ncc2-c2cnco2)nc1 [Example 255, 5-(4-(((1S,2S)-2-(5-methoxypyridin-2-yl)cyclopropyl)methoxy)-2-methylpyrimidin-5-yl)oxazole]	7.7 nM
COc1ccc([C@H]2C[C@@H]2COc2nc(C)ncc2C2CCC(=O)C2)nc1 (stereo partly drawn) [Example 78]	8.35 nM
Cc1ccc([C@H]2C[C@@H]2COc2nc(C)ncc2-c2cccn3ccnc23)nc1 [Example 135, 8-(2-methyl-4-(((1S,2S)-2-(5-methylpyridin-2-yl)cyclopropyl)methoxy)pyrimidin-5-yl)imidazo[1,2-a]pyridine]	37.3 nM
Cc1ncc(-c2cccnc2)c(OC[C@H]2C[C@@H]2c2ccc3ccccc3n2)n1 [Example 155, 2-((1S,2S)-2-((2-methyl-5-(pyridin-3-yl)pyrimidin-4-yloxy)methyl)cyclopropyl)quinoline]	0.01 nM
COc1ccc([C@H]2C[C@@H]2COc2nc(C)ncc2-c2ccc(C#N)n2C)nc1 [Example 109, 5-(4-(((1S,2S)-2-(5-methoxypyridin-2-yl)cyclopropyl)methoxy)-2-methylpyrimidin-5-yl)-1-methyl-1H-pyrrole-2-carbonitrile]	0.94 nM
COc1ccc([C@H]2C[C@@H]2COc2nc(C)ncc2-c2ccc([S+](C)[O-])nc2)nc1 (single isomer, unassigned) [Example 65]	2.62 nM
CCc1ccc(-c2cnc(C)nc2OC[C@H]2C[C@@H]2c2ccc(OC)cn2)cn1 [Example 85, 5-(6-ethylpyridin-3-yl)-4-(((1S,2S)-2-(5-methoxypyridin-2-yl)cyclopropyl)methoxy)-2-methylpyrimidine]	0.86 nM
COc1cc(-c2cnc(C)nc2OC[C@H]2C[C@@H]2c2ccc3ccccc3n2)cc2nccn12 [Example 131, 2-((1S,2S)-2-((5-(5-methoxyimidazo[1,2-a]pyridin-7-yl)-2-methylpyrimidin-4-yloxy)methyl)cyclopropyl)quinoline]	0.04 nM
CCc1ccc([C@@H]2C[C@@H]2COc2nc(C)ncc2C2CCC(=O)CC2)nc1 [Example 195, 4-(4-(((1S,2R)-2-(5-ethylpyridin-2-yl)cyclopropyl)methoxy)-2-methylpyrimidin-5-yl)cyclohexanone]	3.48 nM
COc1ccc([C@H]2C[C@@H]2COc2nc(C)ncc2-c2ccc([S+](C)[O-])nc2)nc1 (single isomer, unassigned) [Example 64]	1.75 nM
COc1ccc([C@H]2C[C@@H]2COc2nc(C)ncc2-c2ccc(Br)cc2)nc1 [Example 81, 5-(4-bromophenyl)-4-(((1S,2S)-2-(5-methoxypyridin-2-yl)cyclopropyl)methoxy)-2-methylpyrimidine]	4.97 nM
COc1ccc([C@H]2C[C@@H]2COc2nc(C)ncc2-c2cc(C(F)(F)F)cnc2Cl)nc1 [Example 87, 5-(2-chloro-5-(trifluoromethyl)pyridin-3-yl)-4-(((1S,2S)-2-(5-methoxypyridin-2-yl)cyclopropyl)methoxy)-2-methylpyrimidine]	0.44 nM
Cc1ccnc([C@H]2C[C@@H]2COc2nc(C)ncc2C2CCC(=O)CC2)c1 [Example 203, 4-(2-methyl-4-(((1S,2S)-2-(4-methylpyridin-2-yl)cyclopropyl)methoxy)pyrimidin-5-yl)cyclohexanone]	30.8 nM
COc1ccc([C@H]2C[C@@H]2COc2nc(C)ncc2-c2ccc(-c3noc(CO)n3)cc2)nc1 [Example 252, (3-(4-(4-(((1S,2S)-2-(5-methoxypyridin-2-yl)cyclopropyl)methoxy)-2-methylpyrimidin-5-yl)phenyl)-1,2,4-oxadiazol-5-yl)methanol]	2.03 nM
COc1ccc([C@H]2C[C@@H]2COc2nc(C)ncc2-c2nnn(C)n2)nc1 [Example 235, 4-(((1S,2S)-2-(5-methoxypyridin-2-yl)cyclopropyl)methoxy)-2-methyl-5-(2-methyl-2H-tetrazol-5-yl)pyrimidine]	21.5 nM
COc1ccc([C@H]2C[C@@H]2COc2nc(C)ncc2[C@@H]2CC[C@@H](O)C2)nc1 [Example 80, (1R,3R)-3-(4-(((1S,2S)-2-(5-methoxypyridin-2-yl)cyclopropyl)methoxy)-2-methylpyrimidin-5-yl)cyclopentanol]	5.48 nM
COc1ccc([C@H]2C[C@@H]2COc2nc(C)ncc2-c2cc(=O)[nH][nH]2)nc1 [Example 241, 5-(4-(((1S,2S)-2-(5-methoxypyridin-2-yl)cyclopropyl)methoxy)-2-methylpyrimidin-5-yl)-1,2-dihydropyrazol-3-one]	0.9 nM
Cc1ncc(-c2cn(C)nc2CO)c(OC[C@H]2C[C@@H]2c2ccccn2)n1 [Example 116, (1-methyl-4-(2-methyl-4-(((1S,2S)-2-(pyridin-2-yl)cyclopropyl)methoxy)pyrimidin-5-yl)-1H-pyrazol-3-yl)methanol]	9.01 nM
Cc1ncc(C2(O)CCC3(CC2)OCCO3)c(OC[C@H]2C[C@@H]2c2ccc3ccccc3n2)n1 [Example 206, 8-(2-methyl-4-(((1S,2S)-2-(quinolin-2-yl)cyclopropyl)methoxy)pyrimidin-5-yl)-1,4-dioxaspiro[4.5]decan-8-ol]	6.28 nM
COc1ccc([C@H]2C[C@@H]2COc2nc(C)ncc2-c2ocnc2C)nc1 [Example 257, 5-(4-(((1S,2S)-2-(5-methoxypyridin-2-yl)cyclopropyl)methoxy)-2-methylpyrimidin-5-yl)-4-methyloxazole]	0.91 nM
COc1ccc([C@H]2C[C@@H]2COc2nc(C)ncc2-c2ccc(-c3noc(C)n3)cc2)nc1 [Example 251, 3-(4-(4-(((1S,2S)-2-(5-methoxypyridin-2-yl)cyclopropyl)methoxy)-2-methylpyrimidin-5-yl)phenyl)-5-methyl-1,2,4-oxadiazole]	1.97 nM
COc1ccc([C@H]2C[C@@H]2COc2nc(C)ncc2C2CCC(=O)CC2)nc1 [Example 189, 4-(4-(((1S,2S)-2-(5-methoxypyridin-2-yl)cyclopropyl)methoxy)-2-methylpyrimidin-5-yl)cyclohexanone]	3.75 nM
COc1cccc([C@H]2C[C@@H]2COc2nc(C)ncc2C2CCC3(CC2)OCCO3)n1 [Example 200, 4-(((1S,2S)-2-(6-methoxypyridin-2-yl)cyclopropyl)methoxy)-2-methyl-5-(1,4-dioxaspiro[4.5]decan-8-yl)pyrimidine]	1.61 nM
COc1ccc([C@H]2C[C@@H]2COc2nc(C)ncc2-c2ccc(-c3nnn(C)n3)cc2)nc1 [Example 223, 4-(((1S,2S)-2-(5-methoxypyridin-2-yl)cyclopropyl)methoxy)-2-methyl-5-(4-(2-methyl-2H-tetrazol-5-yl)phenyl)pyrimidine]	2.02 nM
COc1ccc([C@H]2C[C@@H]2COc2nc(C)ncc2-c2cn(C)nc2C(O)C(F)(F)F)nc1 (stereo partly drawn) [Example 114, 2,2,2-trifluoro-1-(4-(4-(((1S,2S)-2-(5-methoxypyridin-2-yl)cyclopropyl)methoxy)-2-methylpyrimidin-5-yl)-1-methyl-1H-pyrazol-3-yl)ethanol]	0.93 nM
